Data on 23 molecules can be found in patent US10058550B2, “Methods of treating heart failure” (priority 2015, dated 2018).

The target in the experiment is human APJ receptor (Homo sapiens (Human), UniProt P35414). As to the kind of experiment: biochemical. In kind it is biochemical. The conditions noted are these: read-out: Activity hAPJ SPA EC50 IP. Put shortly:
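Agonist-stimulated [35S]GTPγS (0.2 nM) binding was read by SPA after 90 min at room temperature. Buffer: 20 mM HEPES pH 7.5 with 5 mM MgCl2, 200 mM NaCl, 3 μM GDP, 0.1% BSA; membranes were from a stable human APJ CHO line. EC50 values are averages of independent runs, fitted by non-linear regression.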

human APJ receptor, sequence (P35414 whole entry): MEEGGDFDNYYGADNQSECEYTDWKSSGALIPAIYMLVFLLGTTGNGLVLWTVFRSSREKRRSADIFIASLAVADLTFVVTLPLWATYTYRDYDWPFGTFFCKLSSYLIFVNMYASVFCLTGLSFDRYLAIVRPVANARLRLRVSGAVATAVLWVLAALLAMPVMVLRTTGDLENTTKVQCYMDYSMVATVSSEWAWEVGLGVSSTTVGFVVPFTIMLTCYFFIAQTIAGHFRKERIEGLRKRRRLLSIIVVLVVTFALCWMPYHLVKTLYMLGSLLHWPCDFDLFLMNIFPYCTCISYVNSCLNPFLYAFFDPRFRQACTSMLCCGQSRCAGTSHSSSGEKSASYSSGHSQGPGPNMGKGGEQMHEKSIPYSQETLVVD

On to `COc1cccc(OC)c1-n1c(NS(=O)(=O)[C@@H]2C[C@H](OC)CN(c3ncc(F)cn3)C2)nnc1-c1cccnc1` (stereo in doubt) [Example 817.0, (3R,5S)-N-(4-(2,6-dimethoxyphenyl)-5-(3-pyridinyl)-4H-1,2,4-triazol-3-yl)-1-(5-fluoro-2-pyrimidinyl)-5-methoxy-3-piperidinesulfonamide, (3S,5R)-N-(4-(2,6-dimethoxyphenyl)-5-(3-pyridinyl)-4H-1,2,4-triazol-3-yl)-1-(5-fluoro-2-pyrimidinyl)-5-methoxy-3-piperidinesulfonamide], for which the EC50 is 16 nM.
For `COc1cccc(OC)c1-n1c(NS(=O)(=O)[C@@H]2C[C@H](OC)CN(c3ncc(F)cn3)C2)nnc1-c1cccnc1` (stereo in doubt) [Example 818.0, (3R,5S)-N-(4-(2,6-dimethoxyphenyl)-5-(3-pyridinyl)-4H-1,2,4-triazol-3-yl)-1-(5-fluoro-2-pyrimidinyl)-5-methoxy-3-piperidinesulfonamide, (3S,5R)-N-(4-(2,6-dimethoxyphenyl)-5-(3-pyridinyl)-4H-1,2,4-triazol-3-yl)-1-(5-fluoro-2-pyrimidinyl)-5-methoxy-3-piperidinesulfonamide], the EC50 was 110 nM.
In the case of `COc1cccc(OC)c1-n1c(NS(=O)(=O)[C@@H]2C[C@@H](OC)CN(c3ncc(F)cn3)C2)nnc1-c1cccnc1` (stereo in doubt) [Example 819.0, (3S,5S)-N-(4-(2,6-dimethoxyphenyl)-5-(3-pyridinyl)-4H-1,2,4-triazol-3-yl)-1-(5-fluoro-2-pyrimidinyl)-5-methoxy-3-piperidinesulfonamide, (3R,5R)-N-(4-(2,6-dimethoxyphenyl)-5-(3-pyridinyl)-4H-1,2,4-triazol-3-yl)-1-(5-fluoro-2-pyrimidinyl)-5-methoxy-3-piperidinesulfonamide], the EC50 was determined as 33 nM.
Under `COc1cccc(OC)c1-n1c(NS(=O)(=O)[C@H](C)[C@H](OC(C)C)c2cn3ccccc3n2)nnc1-c1cccnc1` (stereo in doubt) [Example 827.0, (1R,2R)-N-(4-(2,6-dimethoxyphenyl)-5-(3-pyridinyl)-4H-1,2,4-triazol-3-yl)-1-imidazo[1,2-a]pyridin-2-yl-1-(1-methylethoxy)-2-propanesulfonamide, (1S,2S)-N-(4-(2,6-dimethoxyphenyl)-5-(3-pyridinyl)-4H-1,2,4-triazol-3-yl)-1-imidazo[1,2-a]pyridin-2-yl-1-(1-methylethoxy)-2-propanesulfonamide] stands 10 nM; under `COc1cccc(OC)c1-n1c(NS(=O)(=O)[C@H](C)[C@H](OC(C)C)c2cn3ccccc3n2)nnc1-c1cccnc1` (stereo in doubt) [Example 828.0, (1R,2R)-N-(4-(2,6-dimethoxyphenyl)-5-(3-pyridinyl)-4H-1,2,4-triazol-3-yl)-1-imidazo[1,2-a]pyridin-2-yl-1-(1-methylethoxy)-2-propanesulfonamide, (1S,2S)-N-(4-(2,6-dimethoxyphenyl)-5-(3-pyridinyl)-4H-1,2,4-triazol-3-yl)-1-imidazo[1,2-a]pyridin-2-yl-1-(1-methylethoxy)-2-propanesulfonamide], 480 nM.
For `COc1cccc(-c2nnc(NS(C)(=O)=O)n2-c2c(OC)cccc2OC)n1` [Example 4.02, N-(4-(2,6-dimethoxyphenyl)-5-(6-methoxypyridin-2-yl)-4H-1,2,4-triazol-3-yl)methanesulfonamide], the concentration for a half-maximal effect (EC50) was determined as 220 nM.
Consider `CCS(=O)(=O)Nc1nnc(-c2cccc(OC)n2)n1-c1c(OC)cccc1OC` [Example 29.0, N-(4-(2,6-dimethoxyphenyl)-5-(6-methoxypyridin-2-yl)-4H-1,2,4-triazol-3-yl)ethanesulfonamide], for which the EC50 came to 150 nM.
The result for `CCS(=O)(=O)Nc1nnc(-c2cccc(C)n2)n1-c1c(OC)cccc1OC` [Example 30.0, N-(4-(2,6-dimethoxyphenyl)-5-(6-methylpyridin-2-yl)-4H-1,2,4-triazol-3-yl)ethanesulfonamide] reads 830 nM; that for `COc1cccc(-c2nnc(NS(=O)(=O)[C@@H](C)[C@H](OC)c3ncc(C)cn3)n2-c2cccnc2)n1` [Example 33.0, (1R,2S)-1-methoxy-N-(5-(6-methoxypyridin-2-yl)-4-(pyridin-3-yl)-4H-1,2,4-triazol-3-yl)-1-(5-methylpyrimidin-2-yl)propane-2-sulfonamide], 56 nM.
Under `COc1cccc(-c2nnc(NS(=O)(=O)[C@@H](C)[C@H](OC)c3ncc(C)cn3)n2-c2ccccc2)n1` [Example 34.0, (1R,2S)-1-methoxy-N-(5-(6-methoxypyridin-2-yl)-4-phenyl-4H-1,2,4-triazol-3-yl)-1-(5-methylpyrimidin-2-yl)propane-2-sulfonamide] stands 4.2 nM; under `COc1cccc(-c2nnc(NS(=O)(=O)[C@@H](C)[C@H](OC)c3ncc(C)cn3)n2-c2c(OC)ncnc2OC)n1` [Example 35.0, (1R,2S)-N-(4-(4,6-dimethoxypyrimidin-5-yl)-5-(6-methoxypyridin-2-yl)-4H-1,2,4-triazol-3-yl)-1-methoxy-1-(5-methylpyrimidin-2-yl)propane-2-sulfonamide], 0.54 nM; under `COc1cccc(-c2nnc(NS(=O)(=O)[C@@H](C)[C@H](OC)c3ncc(C)cn3)n2-c2cc(C(F)(F)F)cc(C(F)(F)F)c2)n1` [Example 39.0, (1R,2S)-N-(4-(3,5-bis(trifluoromethyl)phenyl)-5-(6-methoxypyridin-2-yl)-4H-1,2,4-triazol-3-yl)-1-methoxy-1-(5-methylpyrimidin-2-yl)propane-2-sulfonamide], 540 nM.
The result for `COc1cccc(-c2nnc(NS(=O)(=O)[C@@H](C)[C@H](OC)c3ncc(C)cn3)n2-c2c(OC(F)F)cccc2OC(F)F)n1` [Example 41.0, (1R,2S)-N-(4-(2,6-bis(difluoromethoxy)phenyl)-5-(6-methoxypyridin-2-yl)-4H-1,2,4-triazol-3-yl)-1-methoxy-1-(5-methylpyrimidin-2-yl)propane-2-sulfonamide] reads 0.22 nM.
Turning to `COc1cccc(-c2nnc(NS(=O)(=O)[C@@H](C)[C@H](OC)c3ncc(C)cn3)n2-c2ccncc2)n1` [Example 42.0, (1R,2S)-1-methoxy-N-(5-(6-methoxypyridin-2-yl)-4-(pyridin-4-yl)-4H-1,2,4-triazol-3-yl)-1-(5-methylpyrimidin-2-yl)propane-2-sulfonamide], the EC50 was determined as 51 nM.
Under `COc1cccc(-c2nnc(NS(=O)(=O)[C@@H](C)[C@H](OC)c3ncc(C)cn3)n2-c2ccc(Cl)cc2)n1` [Example 45.0, (1R,2S)-N-(4-(4-chlorophenyl)-5-(6-methoxy-2-pyridinyl)-4H-1,2,4-triazol-3-yl)-1-methoxy-1-(5-methyl-2-pyrimidinyl)-2-propanesulfonamide] stands 96 nM.
Take `COc1ccc(-n2c(NS(=O)(=O)[C@@H](C)[C@H](OC)c3ncc(C)cn3)nnc2-c2cccc(OC)n2)cc1` [Example 46.0, (1R,2S)-1-methoxy-N-(4-(4-methoxyphenyl)-5-(6-methoxy-2-pyridinyl)-4H-1,2,4-triazol-3-yl)-1-(5-methyl-2-pyrimidinyl)-2-propanesulfonamide]: the EC50 came out at 75 nM.
As to `COc1cccc(-c2nnc(NS(=O)(=O)[C@@H](C)[C@H](OC)c3ncc(C)cn3)n2-c2cccc(F)c2)n1` [Example 47.0, (1R,2S)-N-(4-(3-fluorophenyl)-5-(6-methoxy-2-pyridinyl)-4H-1,2,4-triazol-3-yl)-1-methoxy-1-(5-methyl-2-pyrimidinyl)-2-propanesulfonamide], the EC50 was 8.8 nM.
In the case of `CCO[C@H](c1ncc(F)cn1)[C@H](C)S(=O)(=O)Nc1nnc(-c2cccc(OC)n2)n1-c1c(OC)cccc1OC` [Example 48.0, (1R,2S)-N-(4-(2,6-dimethoxyphenyl)-5-(6-methoxy-2-pyridinyl)-4H-1,2,4-triazol-3-yl)-1-ethoxy-1-(5-fluoro-2-pyrimidinyl)-2-propanesulfonamide], the EC50 is 0.18 nM.
Regarding `COc1cnc([C@@H](OC)[C@H](C)S(=O)(=O)Nc2nnc(-c3cccc(OC)n3)n2-c2c(OC)cccc2OC)nc1` [Example 49.0, (1R,2S)-N-(4-(2,6-dimethoxyphenyl)-5-(6-methoxy-2-pyridinyl)-4H-1,2,4-triazol-3-yl)-1-methoxy-1-(5-methoxy-2-pyrimidinyl)-2-propanesulfonamide], the EC50 worked out at 0.17 nM.
Under `CCO[C@H](c1ncc(F)cn1)[C@H](C)S(=O)(=O)Nc1nnc(-c2cccc(OC)n2)n1-c1ccccc1` [Example 50.0, (1R,2S)-1-ethoxy-1-(5-fluoro-2-pyrimidinyl)-N-(5-(6-methoxy-2-pyridinyl)-4-phenyl-4H-1,2,4-triazol-3-yl)-2-propanesulfonamide] stands 9.3 nM; under `CCO[C@H](c1ncc(F)cn1)[C@H](C)S(=O)(=O)Nc1nnc(-c2cccnc2)n1-c1c(OC)cccc1OC` [Example 51.0, (1R,2S)-N-(4-(2,6-dimethoxyphenyl)-5-(3-pyridinyl)-4H-1,2,4-triazol-3-yl)-1-ethoxy-1-(5-fluoro-2-pyrimidinyl)-2-propanesulfonamide], 0.71 nM; under `COc1cccc(-c2nnc(NS(=O)(=O)[C@@H](C)[C@H](OC)c3ncc(C)cn3)n2-c2ccc3ccccc3c2)n1` [Example 53.0, (1R,2S)-1-methoxy-N-(5-(6-methoxy-2-pyridinyl)-4-(2-naphthalenyl)-4H-1,2,4-triazol-3-yl)-1-(5-methyl-2-pyrimidinyl)-2-propanesulfonamide], 53 nM.
The result for `COC(=O)c1cccc(-n2c(NS(=O)(=O)[C@@H](C)[C@H](OC)c3ncc(C)cn3)nnc2-c2cccc(OC)n2)c1` [Example 54.0, methyl 3-(3-((((1S,2R)-2-methoxy-1-methyl-2-(5-methyl-2-pyrimidinyl)ethyl)sulfonyl)amino)-5-(6-methoxy-2-pyridinyl)-4H-1,2,4-triazol-4-yl)benzoate] reads 12 nM.

For orientation: EC50 means the concentration giving half of the maximal effect.
